According to patent US9409891B2, “Solid forms of an antiviral compound” (Gilead Sciences, Inc., priority 2012, dated 2016):
Converted amounts (≈) assume the structure as drawn. “Also recorded” adds a separate entry of the source.

Assays:
Assay type in all cases: physicochemical
[1] = Follow-up stable form screening (Form II stirred in solvents at about 22° C.); details: for 2-Week Form / 24 h Form: Form II stirred at about 22° C.; for solubility: about 22° C., Form II start
Experimental: In the follow-up stable form screening experiments, the starting materials were Form II. The solids were stirring in the solvents list below at about 22° C. in 2 ml vials.

[2] = Form II stability in water at elevated temperature (slurry, XRPD)
Experimental: During formulation, Compound I may be wet granulated and dried at <50° C. A slurry of Form II in water was stirred at 48° C. (50° C. jacket) and was sampled periodically for XRPD analysis to determine Form I content.

[3] = Hydrate screening, ACN/water system
[4] = Stable form competition study in ACN; details: Forms I through V added to high concentration solution of amorphous Compound I in ACN, stirred overnight
Experimental: To further verify the stability of Form II, competitive crystallization was conducted by adding Forms I through V into a high concentration solution of amorphous Compound I in ACN. […] The mother liquor obtained, which was saturated in terms of Form II, was used in another test in which other forms (Forms I, III, IV and V) were added.

[5] = Stability and hygroscopicity under ambient conditions
[6] = Hydrate screening, EtOH/water system; details: ethanol/water
Excerpt: When the organic component used in the solvent mixture forms solvate with Compound I, potential hydrates may not show up in the slurry screen, as shown in the hydrate screening using ethanol/water mixtures (Table 4). Form IX is a new form found in this study.

[7] = Seeding of Compound I solution in DIPE with Form VI; details: Compound I solution in DIPE seeded with Form VI; only Form II obtained
Experimental: In an attempt crystallize Form VI, the solution of Compound I in DIPE was seeded with Form VI. However, only Form II was obtained.

[8] = water content 10%, water activity 0.510
[9] = water content 20%, water activity 0.654

SMILES: CC1=CC[C@H](C(=O)N(c2cc(C#CC(C)(C)C)sc2C(=O)O)[C@H]2CC[C@](O)(CO[C@H]3CCOC3)CC2)CC1 (relative stereo) [Form II, 5-(3,3-dimethylbutyn-1-yl)-3-[(cis-4-hydroxy-4-{[(3S)-tetrahydrofuran-3-yloxy]methyl}cyclohexyl){[(1R)-4-methylcyclohex-3-en-1-yl]carbonyl}amino]thiophene-2-carboxylic acid]
- 2-Week Form ([1]; 2 Me-THF): solution
- 24 h Form ([1]; 2 Me-THF): solution
- solubility ([1]; 2 Me-THF, solution): >334 mg/mL
- solubility ([1]; ACN/water (50/50)): 18 mg/mL (≈ 33.1 mM)
- solubility ([1]; ACN): 6 mg/mL (≈ 11 mM)
- solubility ([1]; Acetone): 241 mg/mL (≈ 443 mM)
- 2-Week Form ([1]; DCM): solution
- 24 h Form ([1]; DCM): solution
- solubility ([1]; DCM, solution): >274 mg/mL
- solubility ([1]; Ethyl Acetate): 124 mg/mL (≈ 228 mM)
- solubility ([1]; Heptane): 0.05 mg/mL (≈ 0.092 mM)
- solubility ([1]; Isopropyl Acetate): 59 mg/mL (≈ 109 mM)
- solubility ([1]; MIBK): 116 mg/mL (≈ 213 mM)
- 2-Week Form ([1]; MeOH): solution
- 24 h Form ([1]; MeOH): solution
- solubility ([1]; MeOH, solution): >321 mg/mL
- solubility ([1]; Methyl t-butyl ether): 108 mg/mL (≈ 199 mM)
- 2-Week Form ([1]; THF): solution
- 24 h Form ([1]; THF): solution
- solubility ([1]; THF, solution): >346 mg/mL
- solubility ([1]; Toluene): 40 mg/mL (≈ 73.6 mM)
- 24 h Form ([1]; Water): II + I
- Stability of Form II in tested solvents (summary of Table 2) ([1]; stirred at about 22° C., up to 2 weeks): stable in most tested solvents except for alcohols, water, and MEK
- Form conversion in water ([2]; Form II in water at 48° C.): slowly converted to Form I; also recorded: converts slowly to Form I
- Form I content by XRPD ([2]; Form II slurry in water, 48° C. (50° C. jacket), 6 hour point): not detected
- Form by XRPD ([2]; Form II slurry in water, 48° C., after 30 hours): Form I became the dominant form
- Equivalent RH up to which Form II is stable ([3]; 22° C.): ≤ 86.3 % RH
- Water activity up to which Form II is stable ([3]; 22° C.): up to 0.863
- Form at 2 weeks ([3]; water content 30%, water activity 0.896, 22° C.): VIII
- Form at 2 weeks ([3]; water content 32%, water activity 0.9, 22° C.): VIII
- Form at 2 weeks ([3]; water content 40%, water activity 0.914, 22° C.): VIII
- Form at 2 weeks ([3]; water content 50%, water activity 0.926, 22° C.): VIII
- Form at 24 h or 90 h ([3]; water content 50%, water activity 0.926, 90 h, 22° C.): II + small
- Form at 2 weeks ([3]; water content 60%, water activity 0.936, 22° C.): VIII
- Form at 24 h or 90 h ([3]; water content 60%, water activity 0.936, 90 h, 22° C.): VIII + small
- Form at 2 weeks ([3]; water content 70%, water activity 0.943, 22° C.): VIII
- Form at 2 weeks ([3]; water content 80%, water activity 0.949, 22° C.): II + VIII
- Form at 24 h or 90 h ([3]; water content 80.9%, water activity 0.950, 24 h, 22° C.): I + II
- Form at 24 h or 90 h ([3]; water content 100%, water activity 1, 24 h, 22° C.): I + II
- Form detected after competitive crystallization [4]: the only detected form
- Stability and hygroscopicity [5]: stable and non-hygroscopic
- Form at 2 weeks [6, 8]: solution
- Form at 90 hours [6, 8]: solution
- Form at 2 weeks [6, 9]: solution
- Form at 90 hours [6, 9]: solution
- Form at 90 hours ([6]; water content 50%, water activity 0.806): III + small
- Relative stability of forms [7]: more stable than Form VI
